Key:
[1] = target: T1, N-lysine methyltransferase KMT5A (Homo sapiens) (UniProt Q9NQR1); assay: Selectivity interaction (Transferase panel (protein, RNA, and DNA methyltransferases. and EP300 (acetyltransferase))) EUB0000270b SETD8
T1 sequence (whole entry): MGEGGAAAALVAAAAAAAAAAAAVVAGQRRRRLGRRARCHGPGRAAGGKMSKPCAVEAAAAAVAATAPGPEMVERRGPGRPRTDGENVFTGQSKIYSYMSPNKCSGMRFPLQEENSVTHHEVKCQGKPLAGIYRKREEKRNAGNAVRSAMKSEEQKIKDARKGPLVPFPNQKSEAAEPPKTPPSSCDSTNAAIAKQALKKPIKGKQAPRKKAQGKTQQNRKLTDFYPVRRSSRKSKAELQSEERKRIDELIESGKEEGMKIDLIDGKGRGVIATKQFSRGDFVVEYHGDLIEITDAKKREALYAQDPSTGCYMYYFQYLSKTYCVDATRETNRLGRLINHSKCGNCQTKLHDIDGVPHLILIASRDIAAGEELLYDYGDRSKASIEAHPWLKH

Aurora kinase B = Aurora kinase B (Homo sapiens, UniProt Q96GD4); assay: Selectivity interaction (KinomeScan (DiscoverX)) EUB0000595a AURKB; conditions: at 10 µM
Chain of Aurora kinase B (Q96GD4 whole entry): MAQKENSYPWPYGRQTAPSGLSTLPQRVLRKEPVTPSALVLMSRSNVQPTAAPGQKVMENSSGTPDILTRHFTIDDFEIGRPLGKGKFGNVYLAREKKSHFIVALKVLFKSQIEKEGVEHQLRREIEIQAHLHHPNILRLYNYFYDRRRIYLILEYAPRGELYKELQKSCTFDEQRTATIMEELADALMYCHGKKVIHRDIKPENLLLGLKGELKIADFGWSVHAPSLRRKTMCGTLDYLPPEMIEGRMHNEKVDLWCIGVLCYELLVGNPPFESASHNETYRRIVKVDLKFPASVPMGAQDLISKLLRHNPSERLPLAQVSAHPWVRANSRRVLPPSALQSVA

[2] = target: T2, Interleukin-1 receptor-associated kinase 4 (Homo sapiens, UniProt Q9NWZ3); assay: Selectivity interaction (Kinase counterscreening (biochemical assay)) EUB0000604a IRAK4
T2 sequence (Q9NWZ3 whole entry): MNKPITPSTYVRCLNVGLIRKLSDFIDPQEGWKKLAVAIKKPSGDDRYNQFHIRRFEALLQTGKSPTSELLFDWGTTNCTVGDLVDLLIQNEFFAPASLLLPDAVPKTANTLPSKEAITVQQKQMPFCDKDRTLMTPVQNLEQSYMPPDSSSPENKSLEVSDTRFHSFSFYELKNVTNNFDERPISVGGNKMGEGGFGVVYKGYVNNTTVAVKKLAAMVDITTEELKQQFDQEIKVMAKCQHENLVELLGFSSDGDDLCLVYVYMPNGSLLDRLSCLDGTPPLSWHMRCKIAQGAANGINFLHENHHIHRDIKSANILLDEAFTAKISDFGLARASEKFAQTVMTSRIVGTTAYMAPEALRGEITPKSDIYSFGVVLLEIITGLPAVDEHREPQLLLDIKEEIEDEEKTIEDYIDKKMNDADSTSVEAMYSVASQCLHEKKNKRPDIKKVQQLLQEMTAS

[3] = target: T3, Phosphatidylinositol 4,5-bisphosphate 3-kinase catalytic subunit delta isoform (Homo sapiens) (UniProt O00329); assay: Selectivity interaction (Ambit KINOMEscan and KiNATiv profiling in Jurkat cells) EUB0000090b PIK3CD; format: cell-based; conditions: at 1 µM
T3 sequence (whole entry): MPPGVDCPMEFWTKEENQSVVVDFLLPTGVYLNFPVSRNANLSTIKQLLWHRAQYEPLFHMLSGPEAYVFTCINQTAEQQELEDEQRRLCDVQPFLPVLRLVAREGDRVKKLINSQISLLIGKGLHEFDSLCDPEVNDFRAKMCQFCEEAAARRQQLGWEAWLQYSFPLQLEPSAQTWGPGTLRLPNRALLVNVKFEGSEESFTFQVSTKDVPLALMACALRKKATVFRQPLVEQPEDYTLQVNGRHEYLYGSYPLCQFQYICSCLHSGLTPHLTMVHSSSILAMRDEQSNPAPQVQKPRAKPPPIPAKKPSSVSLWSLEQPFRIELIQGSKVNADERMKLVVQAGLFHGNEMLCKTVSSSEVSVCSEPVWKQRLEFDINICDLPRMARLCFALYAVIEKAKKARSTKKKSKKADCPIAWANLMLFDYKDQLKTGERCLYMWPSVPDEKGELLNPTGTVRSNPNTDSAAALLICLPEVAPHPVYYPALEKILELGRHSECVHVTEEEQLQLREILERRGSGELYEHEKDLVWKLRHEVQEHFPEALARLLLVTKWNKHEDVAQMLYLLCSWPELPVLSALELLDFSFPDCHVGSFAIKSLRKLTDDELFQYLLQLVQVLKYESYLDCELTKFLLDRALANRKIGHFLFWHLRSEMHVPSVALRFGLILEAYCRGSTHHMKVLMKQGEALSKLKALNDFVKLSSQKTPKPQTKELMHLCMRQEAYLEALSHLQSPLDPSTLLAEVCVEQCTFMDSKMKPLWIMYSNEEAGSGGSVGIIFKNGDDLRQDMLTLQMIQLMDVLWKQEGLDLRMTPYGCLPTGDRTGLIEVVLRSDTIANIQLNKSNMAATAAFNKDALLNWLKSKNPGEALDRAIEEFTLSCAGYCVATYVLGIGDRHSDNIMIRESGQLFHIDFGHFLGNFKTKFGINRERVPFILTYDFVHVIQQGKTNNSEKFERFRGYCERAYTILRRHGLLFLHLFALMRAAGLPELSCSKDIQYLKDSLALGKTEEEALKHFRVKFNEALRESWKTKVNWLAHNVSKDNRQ

[4] = target: T4, Serine/threonine-protein kinase BRSK2 (Homo sapiens) (UniProt Q8IWQ3); assay: Selectivity interaction (Upstate Kinase Profiler service (Millipore)) EUB0000056c BRSK2; conditions: at 1 µM
T4 sequence (whole entry): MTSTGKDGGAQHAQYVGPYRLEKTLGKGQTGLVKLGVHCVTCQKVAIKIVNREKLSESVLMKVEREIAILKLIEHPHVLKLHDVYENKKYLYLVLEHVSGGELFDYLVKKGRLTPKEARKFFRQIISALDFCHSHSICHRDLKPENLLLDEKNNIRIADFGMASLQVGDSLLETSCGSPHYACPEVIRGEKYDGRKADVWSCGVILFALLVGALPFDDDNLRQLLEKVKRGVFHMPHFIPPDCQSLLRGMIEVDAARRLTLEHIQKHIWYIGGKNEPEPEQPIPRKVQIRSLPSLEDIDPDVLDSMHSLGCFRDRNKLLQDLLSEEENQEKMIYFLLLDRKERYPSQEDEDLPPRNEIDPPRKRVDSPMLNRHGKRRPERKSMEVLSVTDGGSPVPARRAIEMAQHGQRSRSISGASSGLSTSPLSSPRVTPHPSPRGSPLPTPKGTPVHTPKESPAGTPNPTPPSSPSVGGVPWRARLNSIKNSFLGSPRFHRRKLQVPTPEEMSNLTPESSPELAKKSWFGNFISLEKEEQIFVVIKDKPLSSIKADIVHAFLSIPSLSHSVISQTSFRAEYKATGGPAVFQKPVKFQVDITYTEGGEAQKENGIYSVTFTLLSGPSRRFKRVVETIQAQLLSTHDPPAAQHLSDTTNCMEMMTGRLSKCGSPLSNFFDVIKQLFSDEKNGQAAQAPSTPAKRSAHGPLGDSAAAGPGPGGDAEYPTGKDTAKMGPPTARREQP

Cc1cc(CN)cc(C)c1-c1ncn(C)c1-c1cncn1C
% activity ([1]; at 1 µM): > 90% | % activity ([1]; at 10 µM): > 80%

COCC(=O)NC/C=C/c1ccc2ncnc(Nc3ccc(Oc4ccc(C)nc4)c(C)c3)c2c1 [CP-724714]
% of control (Aurora kinase B): 100%

Cc1cnc(Nc2ccc(F)cc2Cl)nc1-c1c[nH]c(C(=O)N[C@H](CO)c2cccc(Cl)c2)c1
Ki [2]: > 4 µM

CN(C)C/C=C/C(=O)Nc1ccc(C(=O)N2CCCC(Nc3ncc(Cl)c(-c4c[nH]c5ccccc45)n3)C2)cc1 (stereo unspecified)
% of control [3]: 100%

Cc1ccc(-c2ccc3c(ccc4sc5c(c43)NC[C@@H](C)NC5=O)n2)cn1
% of inhibition [4]: 93%

Source: ChEMBL document CHEMBL5465560, “Selectivity Literature for EUbOPEN Chemogenomic Library” (2024)
